What all share (test): microbe, parasite or virus in culture
What all share (type): cell-based

The subject of assay [1] is pseudovirions harboring S protein from SARS-CoV-2 Alpha variant (B.1.1.7). The note with it: for EC50: Severe acute respiratory syndrome coronavirus 2.
Assay [2] relates to pseudovirions harboring S protein from SARS-CoV-2 Beta variant (B.1.351). The conditions noted are these: for EC50: Severe acute respiratory syndrome coronavirus 2.
In assay [3] the test system is pseudovirions harboring S protein from SARS-CoV-2 Gamma variant (P.1). The note with it: Severe acute respiratory syndrome coronavirus 2.
Assay [4] has as its system pseudovirions harboring S protein from SARS-CoV-2 Delta variant (B.1.617.2). The note with it: for EC50: Severe acute respiratory syndrome coronavirus 2.
Setting [5] is: read-out: EC50, inhibition of cellular entry of pseudovirions, Gamma variant.

Like-named read-outs stand apart in the source and are kept apart here.

This note sets out measurements from patent publication US20220233468A1 (priority 2021, published 2022).

In the case of `COc1ccc(/C=C/C(=O)C(F)(CC2CCC2)C(=O)/C=C/c2ccc(OC)c(OC)c2)cc1OC` [Compound A, 4-fluoro-4-cyclobutylmethyl-1,7-bis(3,4-dimethoxyphenyl)hepta-1,6-diene-3,5-dione], the “inhibition of cellular entry of pseudovirions with Spike variants (in words), Alpha variant” value in assay [1] is listed as “showed inhibition of cellular entry”. In assay [2], the “inhibition of cellular entry of pseudovirions with Spike variants (in words), Beta variant” value was “showed inhibition of cellular entry”. Also, the EC50 in assay [3] (setting [5]) was roughly 4 µM. Further, the “inhibition of cellular entry of pseudovirions with Spike variants (in words), Delta variant” value in assay [4] is “showed inhibition of cellular entry”.

Regarding `COc1ccc(/C=C/C(=O)C(CC2CCC2)C(=O)/C=C/c2ccc(OC)c(OC)c2)cc1OC` [Compound B, 4-(cyclobutylmethyl)-1,7-bis(3,4-dimethoxyphenyl)hepta-1,6-diene-3,5-dione], the EC50 was roughly 4.4 µM in assay [1] (read-out: EC50, inhibition of cellular entry of pseudovirions, Alpha variant); roughly 3.2 µM in assay [1] (read-out: EC50, prophylactic inhibition of cellular entry of pseudovirions, Alpha variant); roughly 4.7 µM in assay [2] (read-out: EC50, inhibition of cellular entry of pseudovirions, Beta variant); roughly 3.3 µM in assay [2] (read-out: EC50, prophylactic inhibition of cellular entry of pseudovirions, Beta variant); roughly 4.7 µM in assay [3] (setting [5]); roughly 3.6 µM in assay [3] (read-out: EC50, prophylactic inhibition of cellular entry of pseudovirions, Gamma variant). In addition, the EC50 is roughly 4.9 µM in assay [4] (read-out: EC50, inhibition of cellular entry of pseudovirions, Delta variant) and roughly 3.8 µM in assay [4] (read-out: EC50, prophylactic inhibition of cellular entry of pseudovirions, Delta variant).
